Results from patent US5043450A, “8-alkoxyquinolonecarboxylic acid and salts thereof” (priority 1986, dated 1991).
Read-outs that look alike come from different tables or passages of the source.

Legend:
Assay type in all cases: cell-based
[1] = tested on: Enterobacter cloacae IID 977; test: Antibacterial spectra, MIC; details: IID977
[2] = tested on: P. aeruginosa IID 1210; test: Antibacterial spectra, MIC; details: Pseudomonas aeruginosa, IID1210
[3] = tested on: Yersinia enterocolitica IID 981; test: Antibacterial spectra, MIC; details: IID981
[4] = tested on: Eubacterium lentum GAI 5242; test: Antibacterial spectra, MIC; details: Eggerthella lenta, GAI5242
[5] = tested on: B. vulgatus KYA 29327; test: Antibacterial spectra, MIC; details: Phocaeicola vulgatus, KYA29327
[6] = tested on: S. aureus Smith; test: Antibacterial spectra, MIC; details: Staphylococcus aureus
[7] = tested on: E. coli ATCC 10536; test: Antibacterial spectra, MIC; details: Escherichia coli, ATCC10536
[8] = tested on: Morganella morganii IID 602; test: Antibacterial spectra, MIC; details: IID602
[9] = tested on: Peptostreptococcus anaerobius KYA 27337; test: Antibacterial spectra, MIC; details: KYA27337
[10] = tested on: Fusobacterium mortiferum 4249; test: Antibacterial spectra, MIC
[11] = tested on: Serratia marcescens IID 618; test: Antibacterial spectra, MIC; details: IID618
[12] = tested on: Bacteroides fragilis GM 7000; test: Antibacterial spectra, MIC; details: GM7000
[13] = tested on: S. epidermidis IID 866; test: Antibacterial spectra, MIC; details: Staphylococcus epidermidis, IID866
[14] = tested on: P. maltophilia GIFU 2491; test: Antibacterial spectra, MIC; details: Stenotrophomonas maltophilia, GIFU2491
[15] = tested on: Peptococcus magnus KY 017; test: Antibacterial spectra, MIC; details: Finegoldia magna, KY017
[16] = tested on: Staphylococcus aureus 209 P; test: Antibacterial spectra, MIC
[17] = tested on: Klebsiella pneumoniae KY(GN)6445; test: Antibacterial spectra, MIC
[18] = tested on: F. necrophorum S-45; test: Antibacterial spectra, MIC; details: Fusobacterium necrophorum, S45
[19] = tested on: C. ramosum; test: Antibacterial spectra, MIC; details: Thomasclavelia ramosa
[20] = tested on: Salmonella enteritidis IID 604; test: Antibacterial spectra, MIC; details: Salmonella enterica
[21] = tested on: Propionibacterium acens 11828; test: Antibacterial spectra, MIC
[22] = tested on: Citrobacter freundii IID 976; test: Antibacterial spectra, MIC; details: IID976
[23] = tested on: P. aeruginosa IFO 12689; test: Antibacterial spectra, MIC; details: Pseudomonas aeruginosa, IFO12689
[24] = tested on: S. pneumoniae IID 552; test: Antibacterial spectra, MIC; details: Streptococcus pneumoniae, IID552
[25] = tested on: B. distasonis 8503; test: Antibacterial spectra, MIC; details: Parabacteroides distasonis
[26] = tested on: P. cepacia GIFU 518; test: Antibacterial spectra, MIC; details: Burkholderia cepacia, GIFU518
[27] = tested on: Pst. micros UPI 5464-1; test: Antibacterial spectra, MIC; details: Parvimonas micra, UPI54641
[28] = tested on: B. fragilis 25285; test: Antibacterial spectra, MIC; details: Bacteroides fragilis
[29] = tested on: Pseudomonas aeruginosa V-1; test: Antibacterial spectra, MIC; details: V1
[30] = tested on: Acinetobacter anitratus IID 876; test: Antibacterial spectra, MIC; details: Acinetobacter calcoaceticus, IID876
[31] = tested on: S. pyogenes IID 692; test: Antibacterial spectra, MIC; details: Streptococcus pyogenes, IID692
[32] = tested on: Bacilus subtilis PCI 219; test: Antibacterial spectra, MIC; details: Bacillus subtilis, PCI219
[33] = tested on: F. varium KYA 8501; test: Antibacterial spectra, MIC; details: Fusobacterium varium, KYA8501
[34] = tested on: E. faecalis IID 682; test: Antibacterial spectra, MIC; details: Enterococcus faecalis, IID682; 10^6 cells/ml; Gram +
Description: (§1) The antibacterial test was carried out according to the method designated by Japan Society of Chemotherapy.

[35] = tested on: Shigella sonnei IID 969; test: Antibacterial spectra, MIC; details: IID969, 10^6 cells/ml, Gram -
Description: as §1

[36] = tested on: E. coli ML 4707; test: Antibacterial spectra, MIC; details: Escherichia coli, ML4707; 10^6 cells/ml; Gram -
Description: as §1

[37] = tested on: Proteus vulgaris IFO 3167; test: Antibacterial spectra, MIC; details: IFO3167, 10^6 cells/ml, Gram -
Description: as §1

[38] = tested on: Streptococcus pyogenes (S-8); test: Antibacterial spectra, MIC; details: 10^6 cells/ml, Gram +
Description: as §1

[39] = tested on: Veillonella parvula KYA 10790; test: Antibacterial spectra, MIC; details: KYA10790
[40] = tested on: Escherichia coli NIHJ JC-2; test: Antibacterial spectra, MIC; details: NIHJJC2
[41] = tested on: B. thetaiotaomicron (0661); test: Antibacterial spectra, MIC; details: Bacteroides thetaiotaomicron
[42] = tested on: K. pneumoniae 1-220S; test: Antibacterial spectra, MIC; details: Klebsiella pneumoniae, 1220S
[43] = tested on: Alcaligenes faecalis 0114002; test: Antibacterial spectra, MIC
[44] = tested on: S. aureus IID 670 (Terajima); test: Antibacterial spectra, MIC; details: Staphylococcus aureus, IID670
[45] = tested on: P. mirabilis IID 994; test: Antibacterial spectra, MIC; details: Proteus mirabilis, IID994
[46] = tested on: B. fragilis 0558; test: Antibacterial spectra, MIC; details: Bacteroides fragilis
[47] = tested on: Clostridium difficile I-E; test: Antibacterial spectra, MIC; details: Clostridioides difficile
[48] = tested on: C. perfringens KYA 13123; test: microbe, parasite or virus in culture; details: Clostridium perfringens, KYA13123
[49] = 10^6 cells/ml, Gram +, read-out: MIC
[50] = 10^6 cells/ml, Gram -, read-out: MIC

Measured: MIC

COc1c(N2C[C@@H](N)[C@@H](C)C2)c(F)cc2c(=O)c(C(=O)O)cn(C3CC3)c12 (relative stereo) [Exp. 5, 7-(cis-3-amino-4-methyl-1-pyrrolidinyl)-1-cyclopropyl-6-fluoro-1,4-dihydro-8-methoxy-4-oxo-3-quinolinecarboxylic acid]
0.78 µg/mL: [2] | [19] | [23] | [26] | [29]
≤ 0.05 µg/mL: [4]
0.025 µg/mL: [16] | [17] | [35] | [36] | [37]
0.05 µg/mL: [1] | [3] | [6] | [8] | [11] | [20] | [22] | [30] | [42] | [44] | [45]
1.56 µg/mL: [21]; [49] | [33]; [50]
0.0125 µg/mL: [7] | [32] | [40]
0.1 µg/mL: [12] | [13] | [14] | [15] | [24] | [28] | [31] | [34] | [38] | [41] | [46]
0.2 µg/mL: [5] | [9] | [10] | [18] | [27] | [39] | [43]
0.39 µg/mL: [25] | [47]

COc1c(N2C[C@@H](C)[C@H](N)C2)c(F)cc2c(=O)c(C(=O)O)cn(C3CC3)c12 (relative stereo) [Exp. 6, 7-(trans-3-amino-4-methyl-1-pyrrolidinyl)-1-cyclopropyl-6-fluoro-1,4-dihydro-8-methoxy-4-oxo-3-quinolinecarboxylic acid]
0.0125 µg/mL: [7] | [32] | [35] | [36] | [40]
0.1 µg/mL: [8] | [9] | [12] | [13] | [24] | [28] | [31] | [34] | [46]
0.025 µg/mL: [16]
0.2 µg/mL: [5] | [10] | [18] | [48] | [27] | [39] | [41] | [43]
3.13 µg/mL: [21]
0.39 µg/mL: [25] | [26]
1.56 µg/mL: [33]; [50]
0.78 µg/mL: [2] | [19] | [23] | [29] | [47]
0.05 µg/mL: [1] | [3] | [6] | [11] | [14] | [17] | [20] | [22] | [30] | [37] | [38] | [42] | [44] | [45]
≤ 0.05 µg/mL: [4] | [15]

COc1c(N2CCC(N)C2)c(F)cc2c(=O)c(C(=O)O)cn(C3CC3)c12 (stereo not shown) [Exp. 4, 7-(3-amino-1-pyrrolidinyl)-1-cyclopropyl-6-fluoro-1,4-dihydro-8-methoxy-4-oxo-3-quinolinecarboxylic acid]
0.2 µg/mL: [9] | [10] | [12] | [18] | [48] | [27] | [39] | [41]
0.1 µg/mL: [4] | [13] | [14] | [15] | [24] | [28] | [31] | [34] | [46]
0.0125 µg/mL: [40]
1.56 µg/mL: [21]; [49] | [33]; [50]
0.78 µg/mL: [19] | [25]
0.025 µg/mL: [7] | [32] | [35] | [36] | [37]
0.05 µg/mL: [1] | [3] | [6] | [8] | [11] | [16] | [17] | [20] | [22] | [30] | [38] | [42] | [44] | [45]
0.39 µg/mL: [2] | [5] | [23] | [26] | [29] | [43] | [47]

COc1c(N2CCC(CN)C2)c(F)cc2c(=O)c(C(=O)O)cn(C3CC3)c12 (stereo not shown) [Exp. 7, 7-(3-aminomethyl-1-pyrrolidinyl)-1-cyclopropyl-6-fluoro-1,4-dihydro-8-methoxy-4-oxo-3-quinolinecarboxylic acid]
0.1 µg/mL: [1] | [3] | [27] | [39] | [42]
0.78 µg/mL: [2] | [19] | [23] | [25] | [26] | [33]
0.05 µg/mL: [6] | [7] | [9] | [13] | [15] | [17] | [20] | [22] | [30] | [35] | [36] | [37] | [45]
0.2 µg/mL: [8] | [10] | [11] | [14] | [18] | [48] | [28] | [29] | [46]
0.39 µg/mL: [4] | [5] | [12] | [21] | [41] | [43] | [47]
0.025 µg/mL: [16] | [32] | [40] | [44]
